This is an account of results in patent US7153876B2, “Malonamid and malonamic ester derivatives with antithrombotic activity, their preparation, and their use” (Sanofi-Aventis Deutschland GmbH, priority 2000, dated 2006).

The target in the test is T1, human factor VIIa and TF (factor VIIa/TF) (Homo sapiens, UniProt P08709).
T1 construct: human factor VIIa and TF (5 nM and 10 nM, respective final concentration)
Description: Factor VIIa (FVIIa) chromogenic assay. The following applies: inhibition constant towards factor VIIa/TF activity; chromogenic substrate S-2288 500 μM; 25° C.; 15 minute preincubation; factor VIIa 5 nM, TF 10 nM. It counts as biochemical. Here is the method:
The ability of compounds of formula I to inhibit factor VIIa or other enzymes like factor Xa, thrombin, plasmin, or trypsin can be assessed by determining the concentration of the compound of formula I that inhibits enzyme activity by 50%, i.e., the IC50 value, which is related to the inhibition constant Ki. Purified enzymes are used in chromogenic assays. The concentration of inhibitor that causes a 50% decrease in the rate of substrate hydrolysis is determined by linear regression after plotting the relative rates of hydrolysis (compared to the uninhibited control) versus the log of the concentration of the compound of formula I. For calculating the inhibition constant Ki, the IC50 value is corrected for competition with substrate using the formula Ki=IC50/[1+(substrate concentration/Km)] wherein Km is the Michaelis-Menten constant (Chen and Prusoff, Biochem. Pharmacol. 22 (1973), 3099-3108; I. H. Segal, Enzyme Kinetics, 1975, John Wiley & Sons, New York, 100–125; which are incorporated herein by reference). Factor VIIa (FVIIa) Assay:
The inhibitory activity (expressed as inhibition constant Ki (FVIIa)) of compounds of formula I towards factor VIIa/TF activity was determined using a chromogenic assay essentially as described previously (J. A. Ostrem et al., Biochemistry 37 (1998) 1053–1059, which is incorporated herein by reference). Kinetic assays were conducted at 25° C. in half-area microtiter plates (Costar Corp., Cambridge, Mass.) using a kinetic plate reader (Molecular Devices Spectramax 250). A typical assay consisted of 25 μl human factor VIIa and TF (5 nM and 10 nM, respective final concentration) combined with 40 μl of inhibitor dilutions in 10% DMSO/TBS-PEG buffer (50 mM Tris, 15 mM NaCl, 5 mM CaCl2, 0.05% PEG 8000, pH 8.15). Following a 15 minute preincubation period, the assay was initiated by the addition of 35 μl of the chromogenic substrate S-2288 (D-IIe-Pro-Arg-p-nitroanilide, Pharmacia Hepar Inc., 500 μM final concentration).

T1 sequence (P08709 61-212 limits assumed): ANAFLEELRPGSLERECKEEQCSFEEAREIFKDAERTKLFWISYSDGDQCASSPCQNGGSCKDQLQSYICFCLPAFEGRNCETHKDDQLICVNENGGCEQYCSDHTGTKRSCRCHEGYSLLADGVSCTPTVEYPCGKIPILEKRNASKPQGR
T1 sequence (P08709 213-466 limits assumed): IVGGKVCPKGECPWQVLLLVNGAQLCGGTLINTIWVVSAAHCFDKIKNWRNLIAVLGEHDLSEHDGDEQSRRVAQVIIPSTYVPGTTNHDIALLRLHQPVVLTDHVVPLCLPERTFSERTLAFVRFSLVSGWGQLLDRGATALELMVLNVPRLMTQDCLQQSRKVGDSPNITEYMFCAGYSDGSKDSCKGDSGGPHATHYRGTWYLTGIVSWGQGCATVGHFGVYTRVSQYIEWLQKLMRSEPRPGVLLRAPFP
T1 sequence (P13726 33-295 partner): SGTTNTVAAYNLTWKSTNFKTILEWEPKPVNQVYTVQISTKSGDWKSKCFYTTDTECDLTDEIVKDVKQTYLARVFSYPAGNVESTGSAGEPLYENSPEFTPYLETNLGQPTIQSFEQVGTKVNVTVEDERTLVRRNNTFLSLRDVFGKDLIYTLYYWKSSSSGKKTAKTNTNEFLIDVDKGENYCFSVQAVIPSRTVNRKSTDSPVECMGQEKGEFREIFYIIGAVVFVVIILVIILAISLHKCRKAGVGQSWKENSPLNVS

With `N=C(N)c1ccc(NC(=O)C(C(=O)OCc2ccccc2)c2ccccc2)cc1` (stereo not drawn) [Example 1, N-(4-Carbamimidoyl-Phenyl)-2-Phenyl-Malonamic Acid Benzyl Ester], the inhibitory constant (Ki) was determined as 14 µM.

`CC(NC(=O)C(C(=O)Nc1ccc(C(=N)N)cc1)c1ccccc1)c1ccc([N+](=O)[O-])cc1` (stereo not drawn) [Example 3, N-(4-Carbamimidoyl-Phenyl)-N′-[1-(4-Nitro-Phenyl)-Ethyl]-2-Phenyl-Malonamide, Formiate] registered a Ki of 0.198 µM.

`N#CC(NC(=O)C(C(=O)Nc1ccc(C(=N)N)cc1)c1ccccc1)c1ccccc1` (stereo not drawn) [Example 6]: the Ki came out at 3.82 µM.

`COc1ccc2c(c1)C[C@@H](NC(=O)C(C(=O)Nc1ccc(C(=N)N)cc1)c1ccccc1)CC2` (stereo partly drawn) [Example 8]: affinity was put at a Ki of 7.12 µM.

Molecule `C[C@H](NC(=O)C(C(=O)Nc1ccc(C(=N)N)cc1)c1ccccc1)c1ccc(Br)cc1` (stereo partly drawn) [Example 12] had a Ki of 0.301 µM.

In turn, `N=C(N)c1ccc(NC(=O)C(C(=O)NCc2c(Cl)cccc2Oc2ccccc2)c2ccccc2)cc1` (stereo not drawn) [Example 17] gave a Ki of 6.62 µM. Compared with the last molecule, the Ki is about 22-fold higher.

For the molecule `C[C@H](NC(=O)C(C(=O)Nc1ccc(C(=N)N)cc1)c1ccccc1)c1cccc(Br)c1` (stereo partly drawn) [Example 23], affinity was put at a Ki of 0.157 µM.

On to `COc1ccc([C@H](C)NC(=O)C(C(=O)Nc2ccc(C(=N)N)cc2)c2ccccc2)cc1` (stereo partly drawn) [Example 26], for which the inhibition constant Ki stood at 0.381 µM.

Regarding `N=C(N)c1ccc(NC(=O)C(C(=O)NCc2ccc(-c3csnn3)cc2)c2ccccc2)cc1` (stereo not drawn) [Example 28], the Ki is 6.02 µM.

`N=C(N)c1ccc(NC(=O)C(C(=O)NCc2cccc([N+](=O)[O-])c2)c2ccccc2)cc1` (stereo not drawn) [Example 35] returned a Ki of 3.01 µM.

`COc1ccc(CNC(=O)C(C(=O)Nc2ccc(C(=N)N)cc2)c2ccccc2)cc1OC` (stereo not drawn) [Example 38] registered an inhibitory constant (Ki) of 17.4 µM.

With `N=C(N)c1ccc(NC(=O)C(CCc2ccccc2)C(=O)NCc2ccccc2)cc1` (stereo not drawn) [Example 40], the inhibition constant (Ki) was 2.81 µM.

Take `C[C@H](NC(=O)C(CCc1ccccc1)C(=O)Nc1ccc(C(=N)N)cc1)c1ccc2ccccc2c1` (stereo partly drawn) [Example 42]: the Ki stood at 17.1 µM.

The molecule `C[C@H](NC(=O)C(C(=O)Nc1ccc(C(=N)N)cc1)c1ccccc1)c1ccc2ccccc2c1` (stereo partly drawn) [Example 43] came in with a Ki of 0.124 µM.

The molecule `C[C@H](NC(=O)CC(=O)Nc1ccc(C(=N)N)cc1)c1ccc2ccccc2c1` [Example 44] came in with a Ki of 0.376 µM.
